Test results: ChEMBL document CHEMBL1155388 (Bioorg Med Chem Lett, 2010)
pEC50: −log10 of the molar value. Calls of active or inactive are those of the source. The calls are words filed in the database; no cut-off is given here.

Legend:
Assay type in all cases: functional, cell-based
[1] = target: T1, Muscarinic acetylcholine receptor M1 (Homo sapiens) (UniProt P11229); assay: Potentiation of muscarinic M1 receptor expressed in CHO cells assessed as effect on acetylcholine-induced intracellular calcium mobilization at 100 uM after 1 hr by FLIPR assay
T1 sequence (whole entry): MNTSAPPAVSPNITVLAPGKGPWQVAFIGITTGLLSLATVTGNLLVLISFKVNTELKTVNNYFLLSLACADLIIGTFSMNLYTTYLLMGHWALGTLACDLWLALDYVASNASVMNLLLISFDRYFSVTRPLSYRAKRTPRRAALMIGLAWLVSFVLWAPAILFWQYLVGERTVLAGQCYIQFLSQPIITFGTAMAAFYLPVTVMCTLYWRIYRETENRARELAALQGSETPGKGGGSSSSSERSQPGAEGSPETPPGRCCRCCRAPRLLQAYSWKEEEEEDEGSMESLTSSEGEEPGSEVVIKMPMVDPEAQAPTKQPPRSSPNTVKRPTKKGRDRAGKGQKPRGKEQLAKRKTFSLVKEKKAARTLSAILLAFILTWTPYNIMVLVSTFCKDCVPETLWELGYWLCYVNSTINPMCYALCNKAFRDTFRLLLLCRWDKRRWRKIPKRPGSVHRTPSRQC

[2] = target: T1, Muscarinic acetylcholine receptor M1 (Homo sapiens); assay: Potentiation of muscarinic M1 receptor expressed in CHO cells assessed as effect on acetylcholine-induced intracellular calcium mobilization after 1 hr by FLIPR assay relative to acetylcholine; parameters: concentration or dose not given beside the values
[3] = target: T2, Muscarinic acetylcholine receptor M5 (Homo sapiens) (UniProt P08912); assay: Potentiation of muscarinic M5 receptor expressed in CHO cells assessed as effect on acetylcholine-induced intracellular calcium mobilization up to 30 uM after 1 hr by FLIPR assay
T2 sequence (whole entry): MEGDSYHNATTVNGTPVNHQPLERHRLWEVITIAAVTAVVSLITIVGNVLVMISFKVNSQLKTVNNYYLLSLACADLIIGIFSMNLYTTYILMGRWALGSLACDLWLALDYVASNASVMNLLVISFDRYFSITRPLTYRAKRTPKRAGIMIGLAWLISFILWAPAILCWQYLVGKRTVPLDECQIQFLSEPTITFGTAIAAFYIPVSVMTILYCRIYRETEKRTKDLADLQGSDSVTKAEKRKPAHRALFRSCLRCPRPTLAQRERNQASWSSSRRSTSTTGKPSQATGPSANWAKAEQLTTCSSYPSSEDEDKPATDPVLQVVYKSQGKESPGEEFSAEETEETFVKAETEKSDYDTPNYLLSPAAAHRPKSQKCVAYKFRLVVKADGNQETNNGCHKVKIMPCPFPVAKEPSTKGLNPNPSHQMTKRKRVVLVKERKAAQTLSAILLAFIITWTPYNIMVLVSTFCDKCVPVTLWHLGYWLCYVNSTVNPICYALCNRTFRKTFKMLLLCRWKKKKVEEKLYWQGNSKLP

[4] = target: Muscarinic acetylcholine receptor M3 (Homo sapiens) (UniProt P20309); assay: Potentiation of muscarinic M3 receptor expressed in CHO cells assessed as effect on acetylcholine-induced intracellular calcium mobilization up to 30 uM after 1 hr by FLIPR assay
Muscarinic acetylcholine receptor M3 (Homo sapiens), sequence (P20309 whole entry, looked up): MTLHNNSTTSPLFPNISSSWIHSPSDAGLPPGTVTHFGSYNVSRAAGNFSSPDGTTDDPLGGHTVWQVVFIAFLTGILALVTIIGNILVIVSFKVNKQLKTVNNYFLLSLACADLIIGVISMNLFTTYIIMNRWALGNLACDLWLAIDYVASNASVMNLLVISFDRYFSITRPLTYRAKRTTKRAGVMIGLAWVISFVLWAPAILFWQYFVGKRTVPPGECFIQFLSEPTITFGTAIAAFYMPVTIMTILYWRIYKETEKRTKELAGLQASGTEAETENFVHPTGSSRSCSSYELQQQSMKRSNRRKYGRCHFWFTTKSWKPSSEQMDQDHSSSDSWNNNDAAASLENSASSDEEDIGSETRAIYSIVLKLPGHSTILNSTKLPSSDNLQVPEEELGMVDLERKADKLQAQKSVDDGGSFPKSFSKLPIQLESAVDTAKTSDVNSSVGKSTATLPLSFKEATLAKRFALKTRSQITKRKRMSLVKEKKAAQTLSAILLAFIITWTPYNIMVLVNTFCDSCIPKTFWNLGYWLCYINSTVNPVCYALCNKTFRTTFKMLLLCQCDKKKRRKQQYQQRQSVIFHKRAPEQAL

[5] = target: T3, Muscarinic acetylcholine receptor M1 (Homo sapiens, UniProt P11229); assay: Potentiation of muscarinic M1 receptor expressed in CHO cells assessed as effect on acetylcholine-induced intracellular calcium mobilization after 1 hr by FLIPR assay
T3 sequence (P11229 whole entry): T1 sequence (whole entry)

[6] = target: T4, Muscarinic acetylcholine receptor M2 (Homo sapiens) (UniProt P08172); assay: Potentiation of muscarinic M2 receptor expressed in CHO cells co-transfected with Gqi5 assessed as effect on acetylcholine-induced intracellular calcium mobilization up to 30 uM after 1 hr by FLIPR assay
T4 sequence (whole entry): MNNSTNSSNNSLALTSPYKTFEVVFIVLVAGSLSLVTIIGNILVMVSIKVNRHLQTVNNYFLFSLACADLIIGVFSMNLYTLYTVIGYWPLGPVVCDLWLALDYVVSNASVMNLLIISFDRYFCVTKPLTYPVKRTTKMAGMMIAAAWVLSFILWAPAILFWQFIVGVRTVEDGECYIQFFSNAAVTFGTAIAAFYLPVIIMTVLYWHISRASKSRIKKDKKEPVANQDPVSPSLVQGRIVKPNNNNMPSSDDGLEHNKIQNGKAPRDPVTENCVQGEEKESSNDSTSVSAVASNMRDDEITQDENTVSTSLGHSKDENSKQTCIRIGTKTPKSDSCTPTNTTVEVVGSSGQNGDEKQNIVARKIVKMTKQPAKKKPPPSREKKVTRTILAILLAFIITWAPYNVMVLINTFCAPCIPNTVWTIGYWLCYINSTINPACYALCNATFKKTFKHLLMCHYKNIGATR

[7] = target: T5, Muscarinic acetylcholine receptor M4 (Homo sapiens) (UniProt P08173); assay: Potentiation of muscarinic M4 receptor expressed in CHO cells co-transfected with Gqi5 assessed as effect on acetylcholine-induced intracellular calcium mobilization up to 30 uM after 1 hr by FLIPR assay
T5 sequence (whole entry): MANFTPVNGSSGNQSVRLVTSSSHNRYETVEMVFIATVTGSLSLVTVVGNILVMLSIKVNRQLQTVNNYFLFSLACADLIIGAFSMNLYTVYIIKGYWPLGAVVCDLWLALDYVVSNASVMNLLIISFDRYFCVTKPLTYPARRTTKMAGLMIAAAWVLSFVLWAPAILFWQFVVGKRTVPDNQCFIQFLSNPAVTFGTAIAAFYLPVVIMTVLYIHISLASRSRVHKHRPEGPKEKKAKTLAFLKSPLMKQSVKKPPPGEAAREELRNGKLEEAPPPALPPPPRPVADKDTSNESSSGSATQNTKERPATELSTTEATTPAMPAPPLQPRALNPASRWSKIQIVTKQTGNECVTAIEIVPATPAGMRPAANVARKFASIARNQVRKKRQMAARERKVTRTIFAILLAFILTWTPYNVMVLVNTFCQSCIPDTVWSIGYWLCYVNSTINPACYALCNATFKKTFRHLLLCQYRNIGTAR

[8] = target: T1, Muscarinic acetylcholine receptor M1 (Homo sapiens); assay: Potentiation of muscarinic M1 receptor expressed in CHO cells assessed as effect on acetylcholine-induced intracellular calcium mobilization at 30 uM after 1 hr by FLIPR assay
[9] = target: T1, Muscarinic acetylcholine receptor M1 (Homo sapiens); assay: Potentiation of muscarinic M1 receptor expressed in CHO cells assessed as effect on acetylcholine-induced intracellular calcium mobilization at 10 uM after 1 hr by FLIPR assay
[10] = target: T2, Muscarinic acetylcholine receptor M5 (Homo sapiens); assay: Potentiation of muscarinic M5 receptor expressed in CHO cells assessed as effect on acetylcholine-induced intracellular calcium mobilization at 30 uM after 1 hr by FLIPR assay relative to acetylcholine
[11] = target: Muscarinic acetylcholine receptor M3 (Homo sapiens) (UniProt P20309); assay: Potentiation of muscarinic M3 receptor expressed in CHO cells assessed as effect on acetylcholine-induced intracellular calcium mobilization at 30 uM after 1 hr by FLIPR assay relative to acetylcholine
[12] = target: T2, Muscarinic acetylcholine receptor M5 (Homo sapiens); assay: Potentiation of muscarinic M5 receptor expressed in CHO cells assessed as effect on acetylcholine-induced intracellular calcium mobilization at 10 uM after 1 hr by FLIPR assay relative to acetylcholine

SMILES	Activity [2]	pEC50 [5]	fold change (FC) [8]	also measured
COc1ccc(Cn2cc(C(=O)O)c(=O)c3ccccc32)cc1	100%	–	–	fold change (FC) [1]: 100
Cn1cc(-c2ccc(CN3C(=O)C(=O)c4ccccc43)cc2)cn1	80%	5.64	14	fold change (FC) [9]: 5; Activity [10]: 35%; fold change (FC) [10]: 14; Activity [11]: 25%; fold change (FC) [12]: 5
Cn1cc(-c2ccc(CN3C(=O)C(=O)c4c(F)ccc(F)c43)c(F)c2)cn1	50%	5.92	–	–
Cn1cc(-c2ccc(CN3C(=O)C(=O)c4cccc(F)c43)c(F)c2)cn1	55%	5.64	–	–

Further lines, with some results ahead:

Activity [2]	pEC50 [5]	fold change (FC) [8]	SMILES	also measured
65%	6.08	3	Cn1cc(-c2ccc(CN3C(=O)C(=O)c4ccccc43)c(F)c2)cn1	Activity [3]: inactive; fold change (FC) [3]: 3; Activity [4]: inactive; Activity [6]: inactive; Activity [7]: inactive
40%	5.96	–	Cn1cc(-c2cc(F)c(CN3C(=O)C(=O)c4cccc(F)c43)c(F)c2)cn1	–
60%	6.07	2	Cn1cc(-c2cc(F)c(CN3C(=O)C(=O)c4ccccc43)c(F)c2)cn1	fold change (FC) [3]: 2
